Reference: patent publication US8999980B2, “Oxazine derivatives” (Shionogi & Co., Ltd., priority 2009, dated 2015)

What follows are compounds tested against Recombinant human BACE1 (Homo sapiens (Human), UniProt P56817) (assay: Assay of BACE1 inhibiting activity). Details: read-out: IC50 (50% inhibitory concentration against the enzymatic activity); Recombinant human BACE1 7.4 nmol/L, substrate peptide 18 nmol/L, pH 5.0, 30° C., 3 hours.
Assay type: biochemical
Protocol: 48.5 μL of substrate peptide solution (Biotin-XSEVNLDAEFRHDSGC-Eu: X=ε-amino-n-capronic acid, Eu=Europium cryptate) was added to each well of 96-hole half-area plate (a black plate: Costar), and after addition of 0.5 μl of the test compound (dissolved in N,N′-dimethyl formaldehyde) and 1 μl of Recombinant human BACE1(R&D Systems), the reaction mixture was incubated at 30° C. for 3 hours. The substrate peptide was synthesized by reacting Cryptate TBPCOOH mono SMP (CIS bio international) with Biotin-XSEVNLDAEFRHDSGC (Peptide Institute, Inc.).
After the incubation for reaction, 50 μl of 8.0 μg/ml Streptavidin-XL665 (CIS bio international) dissolved in phosphate buffer (150 mmol/L K2HPO4—KH2PO4, pH 7.0, 0.008% Triton X-100, 0.8 mol/L KF) was added to each well and left stand at 30° C. for an hour.

Sequence of Recombinant human BACE1 (P56817 46-501): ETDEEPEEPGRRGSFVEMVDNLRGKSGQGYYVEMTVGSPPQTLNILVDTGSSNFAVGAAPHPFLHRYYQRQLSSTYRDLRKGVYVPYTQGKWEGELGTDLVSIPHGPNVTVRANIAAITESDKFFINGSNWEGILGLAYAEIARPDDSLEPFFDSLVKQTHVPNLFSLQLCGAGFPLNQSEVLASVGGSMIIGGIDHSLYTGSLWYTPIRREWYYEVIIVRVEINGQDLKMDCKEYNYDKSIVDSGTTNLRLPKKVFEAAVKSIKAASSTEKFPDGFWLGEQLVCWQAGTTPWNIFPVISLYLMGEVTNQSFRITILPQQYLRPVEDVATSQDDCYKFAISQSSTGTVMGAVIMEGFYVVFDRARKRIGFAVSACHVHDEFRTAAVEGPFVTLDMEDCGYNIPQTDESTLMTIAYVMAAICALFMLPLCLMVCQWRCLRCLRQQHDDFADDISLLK

Structure (SMILES)	IC50 [µM]
C=C1C[C@@](C)(c2cc(NC(=O)c3cnc(OC)cn3)ccc2F)N=C(N)O1 [Compound I-3]	≤ 30
C=C1C[C@@](C)(c2cc(NC(=O)c3ncc(F)cc3F)ccc2F)N=C(N)O1 [Compound I-5]	≤ 30
C=C1C[C@@](C)(c2cc(NC(=O)c3ncc(Cl)cc3Cl)ccc2F)N=C(N)O1 [Compound I-4]	≤ 30
C=C1C[C@@](C)(c2cc(NC(=O)c3ccc(Cl)cn3)ccc2F)N=C(N)O1 [Compound I-2]	0.027
